Consider four compounds from ChEMBL document CHEMBL1201862, “PubChem BioAssay data set” (2004).

Test systems include CCRF-CEM; HT-29; SNB-19; NCI-H226; HL-60; HOP-92; NCI-H460; SK-MEL-5; 786-0; SF-268; M14; SK-OV-3; OVCAR-5; HCT-15; EKVX; SR; SN12C; HCC 2998; NCI-H23; CAKI-1.
Common to all, as to assay: DTP human tumour cell line panel, 48 h

As a reminder, the GI50 is the concentration at which growth is held to half of that of the control.

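Where inhibition never reached the appropriate level, the endpoint shown equals the highest concentration tested. Otherwise, values were interpolated linearly from a five-concentration, 48-hour dose response in 96-well plates. GI50 marks 50% less growth.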 The source made the active and inactive calls. No stated cut-off is given here; in the data, active = GI50 up to about 1.1 µM and inactive = higher.

On to `COc1ccc(OC)c(CCc2ccccc2CC(=O)O)c1`, for which the GI50 in the assay with CCRF-CEM, with HT-29, in the assay on SNB-19, in the assay with NCI-H226, in the assay on HL-60 and in the assay on HOP-92 was > 100 µM (inactive) throughout. In addition, the GI50 with NCI-H460, in the assay with SK-MEL-5, in the assay on 786-0, in the assay with SF-268, in the assay with M14 and with SK-OV-3 was > 100 µM (inactive) in each case. In addition, the GI50 in the assay with OVCAR-5 is > 100 µM (inactive); with HCT-15 it was over 100 µM; with EKVX, > 100 µM (inactive); in the assay with SR it was > 100 µM (inactive); with SN12C it was > 100 µM (inactive); with HCC 2998, > 100 µM (inactive). The GI50 in the assay on NCI-H23 and in the assay on CAKI-1 was > 100 µM (inactive) throughout.
For `O=[N+]([O-])C(=C(Cl)Cl)C(Cl)=C(Cl)Cl`, the GI50 in the assay on CCRF-CEM is < 0.01 µM (active); with HT-29, 0.141 µM (active); in the assay with SNB-19 it was 4.6 µM (inactive); with NCI-H226 it was 0.834 µM (active); in the assay on HL-60 it was < 0.0194 µM (active); in the assay on HOP-92, 0.279 µM (active). Further, the GI50 was 1.96 µM (inactive) in the assay with NCI-H460; 0.52 µM (active) in the assay on SK-MEL-5; 0.0895 µM (active) in the assay on 786-0; 0.701 µM (active) with SF-268; 0.0202 µM (active) in the assay on M14; 3.25 µM (inactive) in the assay on SK-OV-3. Moreover, the GI50 in the assay with OVCAR-5 is 2.02 µM (inactive); with HCT-15 it was 0.156 µM; with EKVX, 3.65 µM (inactive); in the assay with SR it was 0.13 µM (active); in the assay with SN12C, 0.497 µM (active); in the assay with HCC 2998, 1.3 µM (inactive). The GI50 is 0.265 µM (active) with NCI-H23 and 0.15 µM (active) in the assay on CAKI-1.
For `C[C@@H]1CC[C@H]2C(C)(C)[C@H]3C[C@@]12CC[C@@]3(C)O` [CEDROL], the GI50 in the assay with CCRF-CEM was > 100 µM (inactive); in the assay on HT-29, 36 µM (inactive); in the assay on SNB-19 it was > 100 µM (inactive); with NCI-H226, 77.1 µM (inactive); in the assay on HL-60 it was 18.7 µM (inactive); in the assay with HOP-92, 72.6 µM (inactive). Further, the GI50 was 18.2 µM (inactive) with NCI-H460; 42.7 µM (inactive) in the assay with SK-MEL-5; 34.3 µM (inactive) in the assay with 786-0; > 100 µM (inactive) in the assay on SF-268; > 100 µM (inactive) in the assay on M14; > 100 µM (inactive) with SK-OV-3. The GI50 with OVCAR-5 was > 100 µM (inactive); in the assay on HCT-15, 59.3 µM; with EKVX, > 100 µM (inactive); with SR, 18.7 µM (inactive); in the assay with SN12C, 26.7 µM (inactive); with HCC 2998 it was 52.2 µM (inactive). In addition, the GI50 with NCI-H23 and in the assay on CAKI-1 was > 100 µM (inactive) each time.
Turning to `O=C1[C@@H]2C3SC(c4ccccc43)[C@@H]2C(=O)N1c1ccccc1`, the GI50 was > 100 µM (inactive) with CCRF-CEM; > 100 µM (inactive) with HT-29; 41.9 µM (inactive) with SNB-19; > 100 µM (inactive) in the assay on NCI-H226; > 100 µM (inactive) in the assay with HL-60; > 64.1 µM (inactive) in the assay on HOP-92. Further, the GI50 in the assay with NCI-H460 was > 100 µM (inactive); in the assay on SK-MEL-5, > 100 µM (inactive); in the assay on 786-0, > 74 µM (inactive); with SF-268, > 95.1 µM (inactive); in the assay with M14, > 100 µM (inactive); with SK-OV-3, > 83.4 µM (inactive). Moreover, the GI50 was > 100 µM (inactive) in the assay on OVCAR-5; over 100 µM with HCT-15; > 100 µM (inactive) with EKVX; > 100 µM (inactive) in the assay with SR; > 100 µM (inactive) in the assay on SN12C; > 100 µM (inactive) in the assay on HCC 2998. The GI50 in the assay on NCI-H23 and in the assay on CAKI-1 was > 100 µM (inactive) in each case.
